Reference: PubChem BioAssay AID328 (DTP/NCI, 2004)
Where “and” joins values, the source holds several entries; their conditions need not be identical. Equal values may be shown once. Inconclusive results and toxic doses are left out. How the source made its calls: active means survival T/C of 150% or more; inactive means T/C below 125% in these data. Residues, ends and D or L forms follow the SMILES beside them. *: point of attachment. Cbz = O=C(OCc1ccccc1)*; NHNH2 = NN*

Test system: BDF1 mice, P388 leukemia ip, median survival T/C
Assay: NCI In Vivo Anticancer Drug Screen. Data for tumor model P388 Leukemia (intraperitoneal) in B6D2F1 (BDF1) mice
Details: endpoint: median survival time, higher = longer survival
Outline: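 Vehicle-dosed animals serve as the reference; survival of compound-dosed, tumour-implanted mice is divided by it.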

[1] = dose: 100.0 mg/kg/injection, schedule: Q04DX003 (ip), vehicle: Klucel (hydroxypropylcellulose) (HPC)
[2] = dose: 200.0 mg/kg/injection, schedule: Q04DX003 (ip), vehicle: Klucel (hydroxypropylcellulose) (HPC)
[3] = dose: 400.0 mg/kg/injection, schedule: Q04DX003 (ip), vehicle: Klucel (hydroxypropylcellulose) (HPC)
[4] = dose: 50.0 mg/kg/injection, schedule: Q04DX003 (ip), vehicle: saline with Tween-80
[5] = dose: 100.0 mg/kg/injection, schedule: Q04DX003 (ip), vehicle: saline with Tween-80
[6] = dose: 200.0 mg/kg/injection, schedule: Q04DX003 (ip), vehicle: saline with Tween-80
[7] = dose: 100.0 mg/kg/injection, schedule: Q04DX003 (ip), vehicle: saline
[8] = dose: 200.0 mg/kg/injection, schedule: Q04DX003 (ip), vehicle: saline
[9] = dose: 400.0 mg/kg/injection, schedule: Q04DX003 (ip), vehicle: saline
[10] = dose: 100.0 mg/kg/injection, schedule: Q01DX009 (ip), vehicle: saline with Tween-80
[11] = dose: 200.0 mg/kg/injection, schedule: Q01DX009 (ip), vehicle: saline with Tween-80
[12] = dose: 400.0 mg/kg/injection, schedule: Q01DX009 (ip), vehicle: saline with Tween-80
[13] = dose: 50.0 mg/kg/injection, schedule: Q01DX009 (ip), vehicle: saline with Tween-80
[14] = dose: 400.0 mg/kg/injection, schedule: Q04DX003 (ip), vehicle: saline with Tween-80

Measured: T/C

CC(C)OC(=O)Oc1cccc2c1C(=O)c1ccccc1C2=O
inactive: [1] 104 % of control | [2] 108 % of control | [3] 104 % of control

CNC(=O)Cc1[nH]ccc1C(=O)O
inactive: dose: 100.0 mg/kg/injection, schedule: Q01DX001 (ip), vehicle: saline with Tween-80 106 % of control | dose: 200.0 mg/kg/injection, schedule: Q01DX001 (ip), vehicle: saline with Tween-80 103 % of control | dose: 400.0 mg/kg/injection, schedule: Q01DX001 (ip), vehicle: saline with Tween-80 114 % of control

COc1ccccc1NC(=O)Nc1ccc(C(=O)OCC(C)C)cc1
inactive: [4] 108 % of control | [5] 91 % of control | [6] 100 % of control

CC(=O)Nc1ccc2ccc(Cl)nc2n1
inactive: [7] 95 % of control | [8] 100 % of control | [9] 104 % of control

O=S(=O)(ON=C1C=CC(=NOS(=O)(=O)c2ccccc2)C=C1)c1ccccc1
inactive: dose: 3.13 mg/kg/injection, schedule: Q04DX003 (ip), vehicle: Klucel (hydroxypropylcellulose) (HPC) 109 % of control | dose: 6.25 mg/kg/injection, schedule: Q04DX003 (ip), vehicle: Klucel (hydroxypropylcellulose) (HPC) 111 % of control | dose: 12.5 mg/kg/injection, schedule: Q04DX003 (ip), vehicle: Klucel (hydroxypropylcellulose) (HPC) 109 % of control | dose: 25.0 mg/kg/injection, schedule: Q04DX003 (ip), vehicle: Klucel (hydroxypropylcellulose) (HPC) 109 % of control

COC1=C(N)C(=O)c2nc(-c3nc(C=O)c(C)c(-c4ccc(OC)c(OC)c4O)c3N)ccc2C1=O
inactive: dose: 0.8 mg/kg/injection, schedule: Q01DX009 (ip), vehicle: dioxane 104 % of control | dose: 1.05 mg/kg/injection, schedule: Q01DX009 (ip), vehicle: dioxane 122 % of control | dose: 1.55 mg/kg/injection, schedule: Q01DX009 (ip), vehicle: dioxane 99 % of control | dose: 2.55 mg/kg/injection, schedule: Q01DX009 (ip), vehicle: dioxane 107 % of control | dose: 3.05 mg/kg/injection, schedule: Q01DX009 (ip), vehicle: dioxane 104 % of control | dose: 4.05 mg/kg/injection, schedule: Q01DX009 (ip), vehicle: dioxane 109 % of control | dose: 5.05 mg/kg/injection, schedule: Q01DX009 (ip), vehicle: dioxane 118 % of control

COc1cc2c(cc1C(C)C)CCC1C(C)(C#N)CCCC21C (stereo unspecified)
inactive: [10] 110 % of control | [11] 110 % of control | [12] 95 % of control

Clc1nc(Cl)c(Nc2ccn[nH]2)nc1Cl
inactive: [13] 100 % of control | [10] 95 % of control and 100 % of control | [11] 100 % of control | [12] 95 % of control

C[N+](C)(C)CCOC(=O)/C=C/c1cnc[nH]1
inactive: dose: 5.0 mg/kg/injection, schedule: Q01DX009 (ip), vehicle: saline 97 % of control | dose: 10.0 mg/kg/injection, schedule: Q01DX009 (ip), vehicle: saline 95 % of control | dose: 20.0 mg/kg/injection, schedule: Q01DX009 (ip), vehicle: saline 117 % of control

O=C(/C=C/c1ccc(OCc2ccccc2)cc1)c1ccccn1
inactive: [13] 97 % of control | [10] 98 % of control | [11] 96 % of control

O=c1nc(Oc2ccccc2)nc2ccc(Cl)nn12
inactive: [13] 105 % of control | [10] 116 % of control

COc1ccc(/C=C(\C)[N+](=O)[O-])cc1OC
inactive: dose: 3.13 mg/kg/injection, schedule: Q01DX009 (ip), vehicle: other 116 % of control | dose: 6.25 mg/kg/injection, schedule: Q01DX009 (ip), vehicle: other 116 % of control | dose: 12.5 mg/kg/injection, schedule: Q01DX009 (ip), vehicle: other 110 % of control | dose: 25.0 mg/kg/injection, schedule: Q01DX009 (ip), vehicle: other 118 % of control

O=C(Nc1ccc(Cl)c(C(F)(F)F)c1)Nc1ccc(Oc2ccc(Cl)cc2)cc1S(=O)(=O)O
inactive: dose: 50.0 mg/kg/injection, schedule: Q04DX003 (ip), vehicle: saline 100 % of control | [7] 95 % of control | [8] 95 % of control

CC1CC(OC(=O)CCN2CC2)CC(C)(C)C1 (stereo unspecified)
inactive: dose: 5.0 mg/kg/injection, schedule: Q04DX003 (ip), vehicle: Klucel (hydroxypropylcellulose) (HPC) 95 % of control and 109 % of control | dose: 10.0 mg/kg/injection, schedule: Q04DX003 (ip), vehicle: Klucel (hydroxypropylcellulose) (HPC) 104 % of control | dose: 20.0 mg/kg/injection, schedule: Q04DX003 (ip), vehicle: Klucel (hydroxypropylcellulose) (HPC) 100 % of control

O=C(O)C1(c2ccccc2)CC1
inactive: [10] 109 % of control | [11] 90 % of control | [12] 90 % of control

COC(=O)C/C(=C\c1ccc(OC)c(OC)c1)C(=O)OC
inactive: dose: 100.0 mg/kg/injection, schedule: Q01DX009 (ip), vehicle: Klucel (hydroxypropylcellulose) (HPC) 109 % of control | [1] 104 % of control | dose: 200.0 mg/kg/injection, schedule: Q01DX009 (ip), vehicle: Klucel (hydroxypropylcellulose) (HPC) 113 % of control | [2] 100 % of control | dose: 400.0 mg/kg/injection, schedule: Q01DX009 (ip), vehicle: Klucel (hydroxypropylcellulose) (HPC) 100 % of control | [3] 100 % of control

CC(=O)OC1CCC2(C)C3=C(CCC2C1)C1C(OC(=O)c2ccccc2[N+](=O)[O-])CC(c2ccc(=O)oc2)C1(C)CC3 (stereo unspecified)
inactive: dose: 0.25 mg/kg/injection, schedule: Q01DX009 (ip), vehicle: Klucel (hydroxypropylcellulose) (HPC) 102 % of control | dose: 0.5 mg/kg/injection, schedule: Q01DX009 (ip), vehicle: Klucel (hydroxypropylcellulose) (HPC) 111 % of control | dose: 1.0 mg/kg/injection, schedule: Q01DX009 (ip), vehicle: Klucel (hydroxypropylcellulose) (HPC) 100 % of control

O=C1CCCCC1N1CCCCC1 (stereo unspecified)
inactive: dose: 50.0 mg/kg/injection, schedule: Q01DX005 (ip), vehicle: saline with Tween-80 98 % of control | dose: 100.0 mg/kg/injection, schedule: Q01DX005 (ip), vehicle: saline with Tween-80 105 % of control

CC(C)C(NC(=O)C1CCCN1C(=O)OCc1ccccc1)C(=O)NN (stereo not drawn) (Cbz-Pro-Val-NHNH2; configuration not given here)
inactive: [4] 100 % of control | [5] 100 % of control | [6] 91 % of control | [14] 100 % of control

NC(=O)CC(NC(=O)CCl)C(=O)O (stereo unspecified)
inactive: [5] 90 % of control | [6] 90 % of control | [14] 86 % of control

COc1cc(NCCCCC(C)N)c2nccc(C)c2c1 (stereo unspecified)
inactive: dose: 50.0 mg/kg/injection, schedule: Q01DX009 (ip), vehicle: saline 105 % of control

CCCCOc1ccc(OCCCCCCCCCC[N+](C)(C)C)cc1
inactive: dose: 3.13 mg/kg/injection, schedule: Q01DX009 (ip), vehicle: Klucel (hydroxypropylcellulose) (HPC) 112 % of control | dose: 6.25 mg/kg/injection, schedule: Q01DX009 (ip), vehicle: Klucel (hydroxypropylcellulose) (HPC) 106 % of control | dose: 12.5 mg/kg/injection, schedule: Q01DX009 (ip), vehicle: Klucel (hydroxypropylcellulose) (HPC) 105 % of control

CCCCCCCC/C=C\CCCCCCCC(=O)OCCCCCCCCCCCCCCC
inactive: [7] 100 % of control | [8] 100 % of control | [9] 100 % of control
